The values that follow come from patent publication EP0341154A2, “Analogues of L-fucose, process for their preparation, their application for the preparation of glycals, anthracycline derivatives of the glycals and the use of the anthracyclines as medicaments” (priority 1988, dated 1989).

The subject of series [1] is L1210. In words: MTT reduction proliferation test, 72 h incubation. The series is classed as cell-based. Particulars: L1210 cells. The procedure:
(§1) Des cellules tumorales L1210, A549 et HT29, à une concentration de 5.10³/ml dans un milieu RPMI, sont incubées dans des plaques de microtitration contenant 96 puits, pendant 72 heures (37°C, 5 % CO₂, 95 % d'humidité relative) avec différentes concentrations de chacun des glycosides (anthracyclines) conformes à l'invention.
(§2) Les témoins consistent en cellules tumorales exposées à un milieu de culture. Quatre puits sont préparés pour chaque concentration en glycoside et pour le témoin. Après 65 heures, 50 µl de MTT (2,5 mg/ml dans du PBS) sont ajoutés.
(§3) Le MTT sera réduit, en présence de cellules vivantes en un colorant formazan rouge insoluble. Après 7 à 24 heures d'incubation supplémentaire, le surnageant est enlevé. Le colorant formazan est solubilisé par l'addition de 100 µl de DMSO dans chaque puits, suivie d'une agitation douce.
(§4) L'extinction est mesurée pour chaque puits, à 492 nm (photomètre Multiscan 340 CC Fa. Flow).
(§5) Les résultats sont exprimés comme le rapport de l'extinction après incubation avec les glycosides sur l'extinction obtenue avec les témoins. Le coefficient de variation est inférieur à 15 %.
Background: Tetrazolium assays rely on reduction of a dye to a coloured formazan, in cell work by metabolically active cells.

Another series relates to HT29. Briefly: MTT reduction proliferation test, 72 h incubation. The format is cell-based. Conditions: HT 29 cells. The procedure: as §1, §2, §3, §4, §5
In the next series the test system is A549. In words: MTT reduction proliferation test, 72 h incubation. The format is cell-based. Particulars: A 549 cells. As for the experimental part:
as §1, §2, §3, §4, §5

Series [2] can be described thus: Acute toxicity in mice (Litchfield Wilcoxon). The format is in vivo, souris NMRI. Particulars: 3 x i.p., NMRI mice, deaths counted after two weeks. An excerpt: La substance à tester est injectée à des souris NMRI selon le protocole tel que précisé dans le Tableau IV, ci-après.
Après deux semaines, le nombre total d'animaux décédés dans chaque groupe est calculé et les DL₅₀ sont évaluées en utilisant la méthode de Litchfield Wilcoxon.

Series [3] concerns L1210. In words: In vivo antitumour effect on L1210 ascites leukemia in mice. On the set-up: species or system souris BDF1. Particulars: for L1210 T/C %: 3 x 1.p./ 1.p. Q3D, BDF1 mice. As for the experimental part: Un liquide d'ascite est prélevé dans les conditions aseptiques chez des souris DBA2 (femelle, 18 - 20 g) le septième jours après l'implantation.
L'ascite est lavée trois fois avec du PBS, comptée et finalement diluée dans du PBS, de manière à obtenir 10⁶ cellules/0,2 ml.
10⁶ cellules dans 0,2 ml de P BS sont injectées dans le peritoine de souris DBA2 pour la propagation de la lignée cellulaire.
10⁶ cellules dans 0,2 ml de PBS sont injectés intrapériotonéalement à des souris BDF1 (femelle 18 - 20 g), 6 animaux/group sont utilisés pour chaque concentration de substance et pour le contrôle.
• a) les animaux sont pesés le premier jour et le cinquième jour après l'administration du médicament. Une perte de poids supérieure à 20 % le cinquième jour est utilisée comme indicateur d'effet toxique du produit. • b) à la fin de l'expérience, (mort de tous les animaux ou soixantième jour de l'essai), le temps moyen de survie des animaux, dans tous les groupes ayant plus de 65 % de survivants au cinquième jour, est évalué selon des procédures standard.
Les animaux survivants au soixantième jour sont considérés comme des survivants de longue durée (LTS : Long Time Survivors) et sont répertoriés séparément.
A partir du temps de survie moyen des groupes traités (MSTT) et des groupes contrôle (MSTC), l'effet antitumoral (T/C) est évalué en fonction de la formule suivante : [formula]
Les valeurs T/C de plus de 125 % sont considé-rées comme des indicateurs d'un effet antitumoral significatif.

`CCCCC[C@@H]1O[C@@H](O[C@H]2C[C@](O)(CC)[C@H](O)c3c(O)c4c(c(O)c32)C(=O)c2c(O)cccc2C4=O)C[C@H](OC(C)=O)[C@@H]1OC(C)=O` [21 c, O-(di-O-acétyl-3′,4′hexadésoxy-2′,6′,7′,8′,9′,10′-α-L-thréodécapyrannosyl)-7 β-Rhodomycinone]: the “CI₅₀ TEST AU MTT L1210” value in the series on L1210 [1] was above 1 µg/mL. Also, the “CI₅₀ TEST AU MTT HT 29” value with HT29 was above 1 µg/mL. Also, the “CI₅₀ TEST AU MTT A 549” value with A549 was above 1 µg/mL.

With `CCCCCC1OC(OC2CC(O)(CC)C(OC3CC(OC(C)=O)C(OC(C)=O)C(CCCCC)O3)c3c(O)c4c(c(O)c32)C(=O)c2c(O)cccc2C4=O)CC(OC(C)=O)C1OC(C)=O` [22 c, di-O-(di-O-acétyl-3′,4′ hexadésoxy-2′,6′,7′,8′,9′, 10′-α-L-thréodécapyrannosyl)-7,10 β-Rhodomycinone], the “CI₅₀ TEST AU MTT L1210” value with L1210 [1] is above 1 µg/mL. In the series with HT29, the “CI₅₀ TEST AU MTT HT 29” value is above 1 µg/mL. The “CI₅₀ TEST AU MTT A 549” value in the series on A549 is above 1 µg/mL.

In the case of `CC[C@@H]1O[C@@H](O[C@H]2C[C@](O)(CC)[C@H](O)c3c(O)c4c(c(O)c32)C(=O)c2c(O)cccc2C4=O)C[C@H](OC(C)=O)[C@@H]1OC(C)=O` [21 b, O-(di-O-acétyl-3′-4′ tridésoxy-2′,6′,7′-α-L-thréo-heptopyrannosyl)-7 β-Rhodomycinone], the “CI₅₀ TEST AU MTT L1210” value in the series on L1210 [1] is recorded as 0,51 µg/ml. Besides, the “CI₅₀ TEST AU MTT HT 29” value in the series on HT29 was above 1 µg/mL. Moreover, the “CI₅₀ TEST AU MTT A 549” value with A549 is 0,46 µg/ml.

Consider `CC[C@@H]1O[C@@H](O[C@H]2C[C@](O)(CC)[C@H](O[C@@H]3C[C@H](OC(C)=O)[C@H](OC(C)=O)[C@H](CC)O3)c3c(O)c4c(c(O)c32)C(=O)c2c(O)cccc2C4=O)C[C@H](OC(C)=O)[C@@H]1OC(C)=O` [22 b, Di-O-(di-O-acétyl-3′,4′tridésoxy-2′,6′,7′-α-L-thréoheptopyrannosyl)-7,10 β-Rhodomycinone], for which, in the series on L1210 [1], the “CI₅₀ TEST AU MTT L1210” value is above 1 µg/mL. The “CI₅₀ TEST AU MTT HT 29” value in the series on HT29 was above 1 µg/mL. The “CI₅₀ TEST AU MTT A 549” value in the series on A549 was above 1 µg/mL.

`CCC1(O)CC(OC2CC(OC(C)=O)C(OC(C)=O)C(C)O2)c2c(O)c3c(c(O)c2C1O)C(=O)c1cccc(O)c1C3=O` [21 a, O-(di-O-acétyl-3′,4′ didésoxy-2′,6′-α-L-thréo-hexopyrannosyl)-7 β-Rhodomycinone]: in the series on L1210 [1], the “CI₅₀ TEST AU MTT L1210” value is given as 0,03 µg/ml. For the same molecule, in the series with HT29, the “CI₅₀ TEST AU MTT HT 29” value was 0,038 µg/ml. In addition, in the series with A549, the “CI₅₀ TEST AU MTT A 549” value is 0,086 µg/ml. The DL₅₀ in series [2] is above 21.3. Also, the “L1210 T/C %” value was 134% in the series on L1210 [3] (10.00 mg/kg/Inj.), 152% in the series with L1210 [3] (13.30 mg/kg/Inj.) and 146% with L1210 [3] (17.70 mg/kg/Inj.). For the same molecule, the Morts toxiques in the series with L1210 [3] (17.70 mg/kg/Inj., 6 animals/group) is 1/6.

On to `CCCCC1OC(OC2CC(O)(C(C)=O)Cc3c(O)c4c(c(O)c32)C(=O)c2c(OC)cccc2C4=O)CC(OC(C)=O)C1OC(C)=O` (centres unmarked) [20 c, acétoxy-3′ O-acétyl-4′ désamino-3′ propyl-6′ daunorubicine], for which the “CI₅₀ TEST AU MTT L1210” value with L1210 [1] was above 1 µg/mL. The “CI₅₀ TEST AU MTT HT 29” value with HT29 is above 1 µg/mL. The “CI₅₀ TEST AU MTT A 549” value in the series with A549 was above 1 µg/mL.
